Results taken from ChEMBL document CHEMBL1201862, “PubChem BioAssay data set” (2004).
Activity calls are given as the source filed them.

Assays:
Cytochrome P450 2C9 = Cytochrome P450 2C9 (Homo sapiens, UniProt P11712)
Cytochrome P450 2D6 = Cytochrome P450 2D6 (Homo sapiens, UniProt P10635);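 further: CYP2D6 member of a cytochrome P450 panel assay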
[1] = target: T1, Alkaline phosphatase, tissue-nonspecific isozyme (Homo sapiens, UniProt P05186)
T1 sequence (P05186 whole entry): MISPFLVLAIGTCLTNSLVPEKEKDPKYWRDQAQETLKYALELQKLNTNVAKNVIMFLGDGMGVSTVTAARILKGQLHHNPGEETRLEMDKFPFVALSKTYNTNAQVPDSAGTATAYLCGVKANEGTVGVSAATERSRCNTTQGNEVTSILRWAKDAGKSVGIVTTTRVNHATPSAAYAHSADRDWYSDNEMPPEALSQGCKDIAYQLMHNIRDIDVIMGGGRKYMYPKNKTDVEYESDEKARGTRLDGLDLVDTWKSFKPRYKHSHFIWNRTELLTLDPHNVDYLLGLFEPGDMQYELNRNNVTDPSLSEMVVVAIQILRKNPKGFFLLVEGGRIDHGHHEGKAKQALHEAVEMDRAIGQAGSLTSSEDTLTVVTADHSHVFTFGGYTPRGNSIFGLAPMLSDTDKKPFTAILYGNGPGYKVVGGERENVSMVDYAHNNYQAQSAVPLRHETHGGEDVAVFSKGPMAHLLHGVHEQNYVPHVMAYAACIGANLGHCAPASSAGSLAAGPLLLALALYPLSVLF

Streptococcus = assay: Luminescence Microorganism-Based Dose Response Follow up to Identify Compounds Cytotoxic to Streptococcus. [Related pubchem assays: 1677 (Project Summary), 1915, 1914, 1902 (Retest at Dose), 1900 (Counter Screen), 1662 (Primary HTS)]; assay type: functional, organism-based
BJ [2] = assay: cytotoxicity toward Ras-transformed BJeLR fibroblasts, dose response, cell-based, alamar blue fluorescence, cherrypicked samples (AID 2631); assay type: functional; conditions: Homo sapiens;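 further: confirmatory dose-response assay in RAS-dependent BJ fibroblasts engineered with TERT, LT and ST, with cytotoxicity read by fluorescence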
Tumor necrosis factor = Tumor necrosis factor (Homo sapiens, UniProt P01375); assay: TNFa-triggered NF-kB activation inhibitors, SAR follow-up, cell-based, revised (AID 2337); assay type: functional
Tumor necrosis factor, sequence (P01375 whole entry): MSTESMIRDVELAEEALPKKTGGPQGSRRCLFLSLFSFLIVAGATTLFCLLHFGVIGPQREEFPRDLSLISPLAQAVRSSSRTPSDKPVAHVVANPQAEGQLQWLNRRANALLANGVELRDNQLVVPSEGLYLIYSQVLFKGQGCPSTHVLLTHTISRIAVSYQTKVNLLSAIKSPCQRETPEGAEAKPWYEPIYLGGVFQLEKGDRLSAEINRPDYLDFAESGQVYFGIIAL

HEK293 [3] = assay: cells; conditions: Homo sapiens
[4] = Luminescent dose response cell-based high throughput screening assay for inhibitors of the Janus kinase 2 mutant JAK2V617F. [Related pubchem assays: 1446 (Primary screen.), 1521 (Confirmation assay.), 1486 (Counter screen.)]; assay type: functional
BJ [5] = assay: cytotoxicity toward BJ-TERT-LT-ST fibroblasts, dose response, cell-based, RAS-independent, luminescence (AID 1935); assay type: functional; conditions: Homo sapiens;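 further: BJ fibroblasts immortalized with TERT plus LT and ST oncogenes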
HEK293 [6] = assay: cells; assay type: functional, cell-based; conditions: Homo sapiens
HEK293 [7] = assay: NOD1 signaling inhibitors, primary screen, cell-based, luminescence, uHTS (AID 1578); assay type: functional; conditions: Homo sapiens
Protein RecA = target: T2, Protein RecA (Mycobacterium tuberculosis, UniProt P9WHJ3); assay: Fluorescence Cell-Free Homogeneous Dose Retest to Identify Inhibitors of RecA-Intein Splicing Activity. [Related pubchem assays (depositor defined):AID2097, AID2223, AID489010, AID492950]; assay type: functional
T2 sequence (P9WHJ3 whole entry): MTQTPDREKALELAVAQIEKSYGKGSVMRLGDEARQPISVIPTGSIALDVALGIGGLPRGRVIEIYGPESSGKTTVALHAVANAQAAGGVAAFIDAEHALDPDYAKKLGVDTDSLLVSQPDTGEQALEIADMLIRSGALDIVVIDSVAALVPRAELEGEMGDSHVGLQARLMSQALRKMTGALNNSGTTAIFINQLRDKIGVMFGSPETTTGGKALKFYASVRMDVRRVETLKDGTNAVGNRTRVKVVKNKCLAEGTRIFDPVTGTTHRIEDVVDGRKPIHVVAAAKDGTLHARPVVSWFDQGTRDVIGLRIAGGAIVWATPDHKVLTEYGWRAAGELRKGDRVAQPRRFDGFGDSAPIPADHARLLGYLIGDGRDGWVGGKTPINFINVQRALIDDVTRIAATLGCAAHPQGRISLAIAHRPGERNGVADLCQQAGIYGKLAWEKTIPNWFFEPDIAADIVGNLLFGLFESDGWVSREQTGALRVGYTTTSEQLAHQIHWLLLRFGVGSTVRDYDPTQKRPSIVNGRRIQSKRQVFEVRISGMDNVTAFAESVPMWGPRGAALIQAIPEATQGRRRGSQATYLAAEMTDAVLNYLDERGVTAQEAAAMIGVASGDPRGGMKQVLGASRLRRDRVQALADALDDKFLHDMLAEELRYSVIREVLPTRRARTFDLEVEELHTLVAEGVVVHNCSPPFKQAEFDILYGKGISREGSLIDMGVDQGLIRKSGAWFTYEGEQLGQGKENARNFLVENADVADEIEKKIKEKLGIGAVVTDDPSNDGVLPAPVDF

[8] = target: T3, Replicative DNA helicase DnaB (Mycobacterium tuberculosis, UniProt P9WMR3); assay: DnaB intein splicing inhibitors, dose response, biochemical, cell-free fluorescence (AID 449749); assay type: functional
T3 sequence (P9WMR3 whole entry): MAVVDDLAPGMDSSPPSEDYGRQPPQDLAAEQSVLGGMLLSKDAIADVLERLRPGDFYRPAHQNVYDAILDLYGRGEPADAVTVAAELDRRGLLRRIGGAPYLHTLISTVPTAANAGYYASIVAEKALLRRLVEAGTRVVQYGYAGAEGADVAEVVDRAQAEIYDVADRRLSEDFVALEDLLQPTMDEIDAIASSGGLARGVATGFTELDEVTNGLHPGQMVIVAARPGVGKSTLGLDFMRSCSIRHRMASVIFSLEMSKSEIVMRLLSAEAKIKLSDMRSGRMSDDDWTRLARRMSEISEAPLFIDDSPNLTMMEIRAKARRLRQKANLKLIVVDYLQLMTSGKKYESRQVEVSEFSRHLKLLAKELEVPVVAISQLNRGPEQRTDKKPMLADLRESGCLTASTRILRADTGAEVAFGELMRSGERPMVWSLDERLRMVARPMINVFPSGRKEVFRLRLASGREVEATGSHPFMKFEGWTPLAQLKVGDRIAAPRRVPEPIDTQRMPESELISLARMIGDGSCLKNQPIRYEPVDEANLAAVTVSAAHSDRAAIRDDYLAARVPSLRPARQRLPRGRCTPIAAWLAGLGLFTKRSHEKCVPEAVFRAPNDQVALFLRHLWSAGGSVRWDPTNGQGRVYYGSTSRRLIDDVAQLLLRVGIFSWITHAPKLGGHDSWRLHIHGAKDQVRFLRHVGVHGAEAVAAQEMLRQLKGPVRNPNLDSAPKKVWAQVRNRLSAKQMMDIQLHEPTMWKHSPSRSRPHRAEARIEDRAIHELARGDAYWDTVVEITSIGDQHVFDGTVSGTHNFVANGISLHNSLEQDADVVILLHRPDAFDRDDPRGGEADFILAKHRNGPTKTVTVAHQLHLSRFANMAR

HEK293 [9] = assay: cells; assay type: functional, cell-based; conditions: Homo sapiens; remark: listed apart in the source
BJ [10] = assay: cells; assay type: functional, cell-based; conditions: Homo sapiens
[11] = target: T4, Heat shock factor protein 1 (Mus musculus, UniProt P38532); assay: HSF1 potentiators in luciferase reporter cells, confirmation, cell-based, NIH3T3, luminescence, dose retest (AID 435004); assay type: functional;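 further: stress induced by proteasome inhibitor MG132 added 30 min after compound; luciferase reporter driven by HSF1 response element in NIH3T3 cells; actives raise luminescence as potentiators of the MG132 stress response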
T4 sequence (P38532 whole entry): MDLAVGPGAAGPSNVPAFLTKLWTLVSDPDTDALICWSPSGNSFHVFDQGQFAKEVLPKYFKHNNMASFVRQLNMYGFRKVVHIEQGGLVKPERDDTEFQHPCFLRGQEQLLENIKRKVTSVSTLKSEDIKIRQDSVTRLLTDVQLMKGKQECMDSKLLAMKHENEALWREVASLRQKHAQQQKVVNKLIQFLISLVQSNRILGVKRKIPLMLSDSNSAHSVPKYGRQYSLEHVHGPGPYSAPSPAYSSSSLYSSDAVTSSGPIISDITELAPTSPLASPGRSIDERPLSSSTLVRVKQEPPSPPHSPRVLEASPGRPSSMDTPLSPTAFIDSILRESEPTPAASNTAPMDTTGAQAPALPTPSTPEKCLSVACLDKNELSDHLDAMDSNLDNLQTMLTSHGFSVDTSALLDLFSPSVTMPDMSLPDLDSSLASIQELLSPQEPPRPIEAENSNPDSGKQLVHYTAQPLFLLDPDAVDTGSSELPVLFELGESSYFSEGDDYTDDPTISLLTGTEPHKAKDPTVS

[12] = target: Transitional endoplasmic reticulum ATPase (Homo sapiens, UniProt P55072); assay: p97 ATPase inhibitors, dose response, biochemical (AID 1534)
Transitional endoplasmic reticulum ATPase (Homo sapiens, UniProt P55072), sequence (P55072 whole entry): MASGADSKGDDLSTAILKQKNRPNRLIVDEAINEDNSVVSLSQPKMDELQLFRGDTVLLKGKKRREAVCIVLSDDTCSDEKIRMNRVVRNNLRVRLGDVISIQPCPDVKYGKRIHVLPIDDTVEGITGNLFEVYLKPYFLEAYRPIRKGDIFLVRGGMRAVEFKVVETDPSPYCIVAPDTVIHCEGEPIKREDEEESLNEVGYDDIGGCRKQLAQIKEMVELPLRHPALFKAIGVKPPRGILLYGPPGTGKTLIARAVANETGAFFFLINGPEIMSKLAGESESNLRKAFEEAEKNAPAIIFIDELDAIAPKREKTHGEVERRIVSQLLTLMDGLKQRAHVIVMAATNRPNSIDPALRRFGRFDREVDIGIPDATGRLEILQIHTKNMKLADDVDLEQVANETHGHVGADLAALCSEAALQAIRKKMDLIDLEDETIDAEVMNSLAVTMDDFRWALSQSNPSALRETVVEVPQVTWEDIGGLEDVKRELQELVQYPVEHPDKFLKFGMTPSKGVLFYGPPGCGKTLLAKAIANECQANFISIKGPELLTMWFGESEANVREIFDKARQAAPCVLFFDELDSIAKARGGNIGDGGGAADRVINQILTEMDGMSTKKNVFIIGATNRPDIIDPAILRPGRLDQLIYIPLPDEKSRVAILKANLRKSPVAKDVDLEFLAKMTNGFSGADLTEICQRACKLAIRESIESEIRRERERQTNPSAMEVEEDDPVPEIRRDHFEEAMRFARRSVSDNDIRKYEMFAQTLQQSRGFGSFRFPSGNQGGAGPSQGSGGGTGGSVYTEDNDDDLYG

Vero = assay: cells; assay type: functional; conditions: Chlorocebus sabaeus
BJ [13] = assay: cytotoxicity toward BJ-TERT fibroblasts, dose response, cell-based, RAS-independent, luminescence (AID 1933); assay type: functional; conditions: Homo sapiens
[14] = target: Nucleotide-binding oligomerization domain-containing protein 1 (Homo sapiens, UniProt Q9Y239); assay: NOD1 signaling inhibitors, SAR follow-up, revised (AID 2333); assay type: functional
Nucleotide-binding oligomerization domain-containing protein 1, sequence (Q9Y239 whole entry, the tested form may be a part): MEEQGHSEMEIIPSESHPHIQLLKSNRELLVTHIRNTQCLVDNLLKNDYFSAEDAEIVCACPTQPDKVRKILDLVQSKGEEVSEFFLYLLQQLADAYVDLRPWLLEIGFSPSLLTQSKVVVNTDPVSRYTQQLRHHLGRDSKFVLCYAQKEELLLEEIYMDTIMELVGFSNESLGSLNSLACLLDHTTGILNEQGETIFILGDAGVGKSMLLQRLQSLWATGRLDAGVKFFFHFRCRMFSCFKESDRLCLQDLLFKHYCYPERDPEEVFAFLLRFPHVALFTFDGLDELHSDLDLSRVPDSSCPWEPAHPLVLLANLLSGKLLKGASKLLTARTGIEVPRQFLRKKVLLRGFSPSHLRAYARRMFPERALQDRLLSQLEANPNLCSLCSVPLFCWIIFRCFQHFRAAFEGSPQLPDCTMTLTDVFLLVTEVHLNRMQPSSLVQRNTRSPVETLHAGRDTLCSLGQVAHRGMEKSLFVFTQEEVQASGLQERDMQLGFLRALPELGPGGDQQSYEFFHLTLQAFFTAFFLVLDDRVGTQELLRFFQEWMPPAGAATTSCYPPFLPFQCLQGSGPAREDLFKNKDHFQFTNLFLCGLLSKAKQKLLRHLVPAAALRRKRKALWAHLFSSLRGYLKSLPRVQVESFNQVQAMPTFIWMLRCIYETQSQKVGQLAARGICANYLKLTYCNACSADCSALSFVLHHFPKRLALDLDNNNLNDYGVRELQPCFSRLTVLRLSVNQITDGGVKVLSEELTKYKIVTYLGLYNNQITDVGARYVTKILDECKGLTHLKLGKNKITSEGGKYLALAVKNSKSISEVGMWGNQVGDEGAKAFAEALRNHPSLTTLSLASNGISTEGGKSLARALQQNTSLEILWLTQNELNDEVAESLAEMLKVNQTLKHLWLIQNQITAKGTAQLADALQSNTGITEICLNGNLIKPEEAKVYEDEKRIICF

[15] = target: Transitional endoplasmic reticulum ATPase (Homo sapiens, UniProt P55072, C522A); assay: C522A mutant p97 ATPase inhibitors, dose response, counter-screen for p97 inhibitor project, biochemical, luminescence (AID 1544)
Transitional endoplasmic reticulum ATPase (Homo sapiens, UniProt P55072, C522A), sequence (P55072 2-806 C522A limits assumed): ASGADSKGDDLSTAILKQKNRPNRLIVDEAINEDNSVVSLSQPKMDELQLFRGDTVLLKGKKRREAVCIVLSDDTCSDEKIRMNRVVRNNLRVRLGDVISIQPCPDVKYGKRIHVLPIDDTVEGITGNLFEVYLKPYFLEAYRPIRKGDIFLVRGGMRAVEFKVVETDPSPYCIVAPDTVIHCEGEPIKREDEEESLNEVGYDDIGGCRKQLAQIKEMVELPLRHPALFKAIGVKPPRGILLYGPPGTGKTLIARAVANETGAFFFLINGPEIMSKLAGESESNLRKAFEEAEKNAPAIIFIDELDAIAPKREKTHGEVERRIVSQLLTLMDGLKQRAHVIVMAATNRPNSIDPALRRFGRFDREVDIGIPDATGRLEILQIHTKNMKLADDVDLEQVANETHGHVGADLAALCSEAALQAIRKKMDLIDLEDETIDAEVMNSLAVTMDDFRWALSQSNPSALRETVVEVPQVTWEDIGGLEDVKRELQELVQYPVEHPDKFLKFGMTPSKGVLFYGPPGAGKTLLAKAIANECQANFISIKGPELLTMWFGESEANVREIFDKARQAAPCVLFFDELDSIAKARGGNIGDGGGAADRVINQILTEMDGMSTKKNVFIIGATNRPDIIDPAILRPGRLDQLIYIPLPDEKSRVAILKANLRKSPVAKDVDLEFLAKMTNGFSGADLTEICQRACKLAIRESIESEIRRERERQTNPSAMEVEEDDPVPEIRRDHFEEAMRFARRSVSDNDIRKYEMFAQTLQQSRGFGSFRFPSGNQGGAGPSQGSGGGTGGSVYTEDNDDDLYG

HEK293 [16] = assay: NOD2 signaling inhibitors in MDP-stimulated cells, cell-based, uHTS, luminescence (AID 2001); assay type: functional; conditions: Homo sapiens
[17] = cytotoxicity toward DRD oncogenic fibroblasts, dose response, cell-based, non-viral oncogenic, luminescence (AID 1934); assay type: functional; conditions: Homo sapiens

Cytochrome P450 2D6, sequence (P10635 whole entry): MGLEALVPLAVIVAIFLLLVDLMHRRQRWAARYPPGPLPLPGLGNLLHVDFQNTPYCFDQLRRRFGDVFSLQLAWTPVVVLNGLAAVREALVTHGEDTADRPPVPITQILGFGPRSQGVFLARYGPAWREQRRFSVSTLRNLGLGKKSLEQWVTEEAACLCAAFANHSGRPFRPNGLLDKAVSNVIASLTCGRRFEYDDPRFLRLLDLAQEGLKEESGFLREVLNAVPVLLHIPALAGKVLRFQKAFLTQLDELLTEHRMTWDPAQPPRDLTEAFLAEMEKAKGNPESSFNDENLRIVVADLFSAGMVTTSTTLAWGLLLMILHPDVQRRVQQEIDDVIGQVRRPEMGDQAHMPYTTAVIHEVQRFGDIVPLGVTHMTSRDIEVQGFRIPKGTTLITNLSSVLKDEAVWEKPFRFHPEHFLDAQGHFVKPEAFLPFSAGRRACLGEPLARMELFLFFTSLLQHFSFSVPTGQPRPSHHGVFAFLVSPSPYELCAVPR
Cytochrome P450 2C9, sequence (P11712 whole entry): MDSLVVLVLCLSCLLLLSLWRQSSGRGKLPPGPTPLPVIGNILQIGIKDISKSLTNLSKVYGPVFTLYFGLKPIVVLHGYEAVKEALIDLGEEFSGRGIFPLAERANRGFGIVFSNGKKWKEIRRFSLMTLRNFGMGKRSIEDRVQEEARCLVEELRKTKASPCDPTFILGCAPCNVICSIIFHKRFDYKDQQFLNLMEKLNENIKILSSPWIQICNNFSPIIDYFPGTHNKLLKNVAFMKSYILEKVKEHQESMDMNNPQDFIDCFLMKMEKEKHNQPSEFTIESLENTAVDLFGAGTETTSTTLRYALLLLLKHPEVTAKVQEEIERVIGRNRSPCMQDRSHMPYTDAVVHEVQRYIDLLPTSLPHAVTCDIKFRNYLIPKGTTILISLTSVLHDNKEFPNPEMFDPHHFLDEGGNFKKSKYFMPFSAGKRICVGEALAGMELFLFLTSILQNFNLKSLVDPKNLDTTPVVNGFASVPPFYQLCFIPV

Compound: CCN=C(S)NNC(=O)CCn1c2ccccc2c2ccccc21
- AC50 (Cytochrome P450 2C9): inconclusive
- AC50 (Cytochrome P450 2D6): 14.1 µM (inconclusive)
- EC50 [1]: > 100 µM (not active)

Compound: COc1cccc(C(=O)n2c3ccccc3c3ccccc32)c1
- EC50 (Streptococcus): > 500 µM (not active)

Compound: Nc1nc(CCl)nc(Nc2ccc3ccccc3c2)n1
- EC50 (BJ [2]): 4.62 µM (active)
- IC50 (Tumor necrosis factor): 11.1 µM (active)
- IC50 (HEK293 [3]): > 20 µM (inactive)
- IC50 [4]: 0.476 µM (active)
- EC50 (BJ [5]): 8.32 µM (inconclusive)
- IC50 (HEK293 [6]): 5.4 µM (active)
- EC50 (HEK293 [7]): 11.1 µM (active)
- EC50 (Protein RecA): 19.4 µM (active)
- AC50 [8]: 15.4 µM (active)
- IC50 (HEK293 [9]): > 20 µM (inactive)
- EC50 (BJ [10]): 0.717 µM (inconclusive)
- EC50 [11]: > 260 µM (inactive)
- IC50 [12]: > 50 µM (not active)
- CC50 (Vero): 1.24 µM (active)
- EC50 (BJ [13]): < 0.12 µM (active)
- IC50 [14]: 3.43 µM (active)
- IC50 [15]: > 50 µM (not active)
- IC50 (HEK293 [16]): 7.7 µM (active)
- EC50 [17]: 0.289 µM (active)
